# Test results reported in patent US20150315153A1, “NOVEL SULFONIC ACID DERIVATIVE COMPOUND, PHOTOACID GENERATOR, CATIONIC POLYMERIZATION INITIATOR, RESIST COMPOSITION, AND CATIONICALLY POLYMERIZABLE COMPOSITION” (ADEKA CORPORATION, priority 2012, published 2015).
# Key:
# [1] = Solubility to propylene glycol monomethyl ether acetate at 25° C.; assay type: physicochemical; conditions: for solubility, ranking among compounds grouped by sulfonate moiety: among Compound Nos. 4, 5, 7 and 10, among Compound Nos. 6, 38 and 40; for Solubility: concentration at which no compound was left undissolved
# Method: (§1) Compound Nos. 4, 5, 7, 10, 20, 6, 35, 38 and 40 and Comparative Compound 1 represented by the Formula below were each dissolved in acetonitrile, and their absorption spectra were measured using a […] U-3010 to determine the values of ?max and (molar extinction coefficient) for absorption in a range of 300 nm to 400 nm as well as the value of ε at 365 nm. […] As for the solubility, the concentration of each compound was increased by 1%-by-mass increments and the concentration at which no compound was left undissolved was determined and, in the results shown in Table 4, the solubility is indicated in terms of this concentration.
# [2] = Weight loss starting point (thermal analysis); assay type: physicochemical
# [3] = UV absorption spectrum in acetonitrile; assay type: physicochemical; conditions: for Maximum absorption wavelength: absorption in a range of 300 nm to 400 nm; for ε at maximum absorption wavelength (molar extinction coefficient): second line of the cell
# Method: as §1
# [4] = propylene glycol monomethyl ether acetate, 25° C.
Structure (SMILES),melting point [°C],"solubility, ranking among compounds grouped by sulfonate moiety [1]","solubility (in words) [1, 4]","solubility, comparison between Compound Nos. 4 and 20 (different Xs) [1, 4]","Solubility [1, 4] [% by mass]",Weight loss starting point [2] [°C],ε at 365 nm [3],Maximum absorption wavelength [3] [nm],ε at maximum absorption wavelength (molar extinction coefficient) [3]
CCc1ccc2c3c(cccc13)C(=O)N(OS(=O)(=O)C(F)(F)F)C2=O [Compound No. 20],145,–,–,–,5,253,9.95 × 10^3,344,1.64 × 10^4
CCCCc1ccc2c3c(cccc13)C(=O)N(OS(=O)(=O)c1ccc(C)cc1)C2=O [Compound No. 6],145.1,highest solubility,–,–,2.3,314.8,1.02 × 10^4,343.5,1.67 × 10^4
CCCCCCCCCCCCCCc1ccc2c3c(cccc13)C(=O)N(OS(=O)(=O)c1ccc(C)cc1)C2=O [Compound No. 40],95.5,–,–,–,1.9,301.8,1.05 × 10^4,344.5,1.68 × 10^4
"CC1(C)C2CCC1(CS(=O)(=O)ON1C(=O)c3cccc4cccc(c34)C1=O)C(=O)C2 (centres unmarked) [Comparative Compound 1, reference compound]",–,–,–,–,2,–,6.48 × 10^2,335,1.34 × 10^4
CCCCc1ccc2c3c(cccc13)C(=O)N(OS(=O)(=O)c1c(C(C)C)cc(C(C)C)cc1C(C)C)C2=O [Compound No. 7],131,–,–,–,5,267,1.06 × 10^4,344,1.65 × 10^4

# Other lines, results leading:
melting point [°C],"solubility, ranking among compounds grouped by sulfonate moiety [1]","solubility (in words) [1, 4]","solubility, comparison between Compound Nos. 4 and 20 (different Xs) [1, 4]","Solubility [1, 4] [% by mass]",Weight loss starting point [2] [°C],ε at 365 nm [3],Maximum absorption wavelength [3] [nm],ε at maximum absorption wavelength (molar extinction coefficient) [3],Structure (SMILES)
110,highest solubility,high solubility,higher solubility,20,250,1.16 × 10^4,346,1.65 × 10^4,CCCCc1ccc2c3c(cccc13)C(=O)N(OS(=O)(=O)C(F)(F)F)C2=O [Compound No. 4]
129.6,–,–,–,1.6,304.9,1.24 × 10^4,345,1.76 × 10^4,CCCCC(CC)Cc1ccc2c3c(cccc13)C(=O)N(OS(=O)(=O)c1ccc(C)cc1)C2=O (centres unmarked) [Compound No. 38]
192,–,–,–,2.0,302,1.11 × 10^4,345.0,1.68 × 10^4,CCCCc1ccc2c3c(cccc13)C(=O)N(OS(=O)(=O)c1ccc(C(F)(F)F)cc1)C2=O [Compound No. 35]
134,–,–,–,5,279,1.17 × 10^4,346,1.68 × 10^4,CCCCc1ccc2c3c(cccc13)C(=O)N(OS(=O)(=O)CC13CCC(CC1=O)C3(C)C)C2=O (centres unmarked) [Compound No. 10]
